Measured values reported in US4847302A, “Use of certain compounds in livestock food as growth promotants for better feed utilization and improved carcass composition” (Merck & Co., Inc., priority 1988, dated 1989).
Where two headings read alike, the source gives them in different places.

Experiments:
Rat Adipose Tissue = experiment: Stimulation of lipolysis (glycerol production) in chopped rat adipose tissue; type: cell-based; conditions: Rattus norvegicus, 2 h
Description: (§1) Fat was collected from freshly killed animals as follows: epididymal and perirenal fat from 150 to 200 g male rates; perirenal fat from 20 to 25 kg whether lambs, and perirenal and omental fat from 35 to 50 kg gilts. Immediately after collection, fat was placed in a siliconized beaker (all glassware was siliconized) containing Krebs-Ringer bicarbonate solution (KRB; pH 7.4) at 37° C. Fat was transferred to a clean beaker and finely chopped with scissors. Chopped fat was then used as such (whole adipose preparation) or treated with collagenase (isolated adipocytes).
Whole adipose tissue from the rat (0.3 ml) or isolated adipocytes from sheep or swine (1 ml) were placed in plastic scintillation vials containing FSM (1.7 or 1 ml, respectively) and test compounds, and incubated at 37° C. for 2 hours. […] Isoproterenol, at the same concentrations, was used as a positive control. After incubation, media was removed and assayed for glycerol by a fluorometric modification of the method of Wieland (1974. Glycerol UV-method. pp. 1404. In: Bergmeyer (Ed.) Methods of Enzymatic Analysis. Verlag Chemie Weinham, Academic Press, New York). […]

[1] = In vivo testing in rats: growth, feed conversion and carcass composition; parameters: species or system rat (male Charles River CD); conditions: in diet; for Gain / Feed Intake / Weight / Carcass Composition % of Change over Control, Fat / Carcass Composition % of Change over Control, Protein: dose equivalent to 20 ppm clenbuterol (clenbuterol: 10)
From the text: Eighty intact, male Charles River CD rats, 75-90 g, were housed and maintained on rat chow and water ad libitum. After four days acclimation ten rats per group were randomized by weight to treatment and pen. Compounds to be tested were premixed and added to ground rat chow using doses equivalent to 20 ppm of clenbuterol on a molecular weight basis. It had previously been determined 10 ppm of clenbuterol was the minimum dose needed to give maximum improvements in gain and feed conversion. Therefore, the results of any compound tested should cause responses similar to clenbuterol if the compound has half or more the activity of clenbuterol.

[2] = test system: Isolated Chicken Hepatocytes; experiment: Inhibition of lipogenesis (14C acetate incorporation) in isolated chicken hepatocytes; type: cell-based; conditions: Gallus gallus, Hepatocyte, 2 h
Description: Determination of anti-lipogenic activity in hepatocytes
Hepatocytes were isolated from chicken liver using the procedure for adipocytes and incubated for 2 hours at 37° C. in the presence of ^14 C acetate and test compounds. […] Isoproterenol, at the same concentrations, was used as a positive control. After incubation, 8 ml Doles reagent (isopropanol:hexane:H2 SO4, 40:10:1) was added and incubation vials were shaken at room temperature for 30 minutes. Vial contents were poured into 50 ml screw-cap tubes. Vials were then rinsed with 6 ml hexane which was poured into the appropriate 50 ml tube. Tubes were shaken by hand, 10 ml H2 O was added, and tubes were shaken again. After phase separation, 2 ml of the upper (hexane) phase was removed to scintillation vials. Hexane was evaporated by a gentle air flow and the remaining lipids were resuspended in 10 ml Scinti Verse II. ^14 C was counted in a Packard liquid scintillation counter. Data are reported as CPM of ^14 C acetate incorporated into total lipids.

[3] = test system: Isolated Ovine Adipocytes; experiment: Stimulation of lipolysis (glycerol production) in isolated ovine adipocytes; type: cell-based, sheep
Description: as §1
(§2) Chopped fat was placed in a shaker containing 70 ml cell dispersion medium (CDM; 5 mM glucose, 0.1% collagenase, 4% bovine serum albumin (BSA), in KRB) and incubated at 37° C. for 1 hour with gentle shaking. Fat was then filtered to remove clumps and washed 4 times with washing medium (WM; 2.5 mM glucose, 1% BSA, in KRB) and 1 time with final suspension medium (FSM; 2.5 mM glucose, 2% essentially fatty acid free BSA, in KRB). Isolated adipocytes were then resuspended in the required amount of FSM (1 ml/flask, 3 flasks/treatment).
(§3) Whole adipose tissue from the rat (0.3 ml) or isolated adipocytes from sheep or swine (1 ml) were placed in plastic scintillation vials containing FSM (1.7 or 1 ml, respectively) and test compounds, and incubated at 37° C. for 2 hours. […] Isoproterenol, at the same concentrations, was used as a positive control. After incubation, media was removed and assayed for glycerol by a fluorometric modification of the method of Wieland (1974. Glycerol UV-method. pp. 1404. In: Bergmeyer (Ed.) Methods of Enzymatic Analysis. Verlag Chemie Weinham, Academic Press, New York).

[4] = Growth promoting activity / feed utilization in livestock (general statements); type: in vivo; conditions: poultry, sheep or swine
[5] = Growth, feed conversion and carcass composition of broilers raised in floor pens for 7 weeks; type: in vivo; conditions: 0.5 ppm in diet
Description: Compound V (bitolterol) was compared to clenbuterol for effects on growth, feed conversion and carcass composition of broilers raised in floor pens for 7 weeks. […] Bitolterol at the highest dose improved rate of gain 2.6% (P 0.01), feed conversion 3.8% (P 0.05) and carcass protein 4.9% (P 0.10).
Clenbuterol at 0.5 ppm in the diet was administered for 7 weeks to one group and only during the last 4 weeks to another group. […] Clenbuterol given for 7 weeks improved feed conversion 3.5% (P 0.05) and appeared to improve (not significant) rate of gain 0.4%, carcass weight 0.7% and carcass protein 4.0% and to decrease (not significant) carcass fat 7.1%.

[6] = Baker et al., Fed. Proc. 42; some species of food livestock; cited from earlier work
[7] = test system: Isolated Swine Adipocytes; experiment: Stimulation of lipolysis (glycerol production) in isolated swine adipocytes; type: cell-based; conditions: for activation at 0.01 µM / activation at 0.05 µM / activation at 0.25 µM: Sus scrofa, Adipocyte, 2 h
Description: as §1, §2, §3

[8] = read-out: percent increase compared to control, glycerol production, Test 1
[9] = read-out: percent increase compared to control, glycerol production, Test 2
[10] = read-out: percent change compared to control, 14C acetate incorporation in fatty acids, Test 1
[11] = read-out: percent change compared to control, 14C acetate incorporation in fatty acids, Test 2

CC(C)(C)NCC(O)c1cc(Cl)c(N)c(Cl)c1 (stereo not shown) [Clenbuterol, clenbuterol]
activation at 0.01 µM (Rat Adipose Tissue; [8]): 12% | activation at 0.05 µM (Rat Adipose Tissue; [8]): 26% | activation at 0.25 µM (Rat Adipose Tissue; [8]): 21% | activation at 0.01 µM (Rat Adipose Tissue; [9]): 10% | activation at 0.05 µM (Rat Adipose Tissue; [9]): 10% | activation at 0.25 µM (Rat Adipose Tissue; [9]): 16% | Gain ([1]; Test 1, control 7.3): 7.8 g/day | Feed Intake ([1]; Test 1, control 18.6): 19.2 g/day | Weight ([1]; Test 1, control 191.8): 198.6 g | Carcass Composition % of Change over Control, Fat ([1]; Test 1): -11.3% | Carcass Composition % of Change over Control, Protein ([1]; Test 1): 11.2% | Gain ([1]; Test 2, control 7.5): 8.2 g/day | Feed Intake ([1]; Test 2, control 19.3): 19.9 g/day | Weight ([1]; Test 2, control 202.3): 216.9 g | Carcass Composition % of Change over Control, Fat ([1]; Test 2): -11.9% | Carcass Composition % of Change over Control, Protein ([1]; Test 2): 4.3% | minimum dose needed to give maximum improvements in gain and feed conversion ([1]; previously determined): 10 ppm | inhibition at 0.01 µM [2, 10]: 4.2% | inhibition at 0.05 µM [2, 10]: 16.4% | inhibition at 0.25 µM [2, 10]: 24.6% | inhibition at 0.01 µM [2, 11]: 8% | inhibition at 0.05 µM [2, 11]: 18% | inhibition at 0.25 µM [2, 11]: 16% | activation at 0.05 µM ([3]; Ovis aries, Adipocyte, 2 h, read-out: percent increase compared to control, glycerol production, Test 1): 240% | activation at 0.25 µM ([3]; Ovis aries, Adipocyte, 2 h, read-out: percent increase compared to control, glycerol production, Test 1, 0.25 μM): 325% | activation at 0.01 µM ([3]; Ovis aries, Adipocyte, 2 h, read-out: percent increase compared to control, glycerol production, Test 2, 0.01 μM): 186% | activation at 0.05 µM ([3]; Ovis aries, Adipocyte, 2 h, read-out: percent increase compared to control, glycerol production, Test 2): 857% | percent increase compared to control, glycerol production ([3]; Test 1, 0.01 μM): inactive | activity compared with other compounds in poultry, sheep or swine [4]: not as active as other compounds in poultry, sheep or swine | feed conversion and carcass protein, 7 weeks versus 4 weeks of administration [5]: slightly more effective | improvement of feed conversion ([5]; 7 weeks, P 0.05): 3.5% | decrease of carcass fat ([5]; 7 weeks, not significant): 7.1% | improvement of carcass protein ([5]; 7 weeks, not significant): 4.0% | improvement of carcass weight ([5]; 7 weeks, not significant): 0.7% | improvement of rate of gain ([5]; 7 weeks, not significant): 0.4% | enhancement of food utilization and change of carcass composition [6]: functions in this way | activation at 0.01 µM [7, 8]: 27% | activation at 0.05 µM [7, 8]: -20% | activation at 0.25 µM [7, 8]: -27% | activation at 0.01 µM [7, 9]: 0% | activation at 0.05 µM [7, 9]: -20% | activation at 0.25 µM [7, 9]: 4% | lipolytic activity (in words) ([7]; isolated swine adipocytes): lack of activity
